Assay results taken from US20260234161A1, “RIFABUTIN ANALOGS FOR THE TREATMENT OF BACTERIAL DISEASES” (BIOVERSYS AG, priority 2023, published 2026).
In brackets after ≈: the same amount, converted by molar mass.

What was measured:
Type in all cases: cell-based
M. xenopi (ATCC 19250) = test: MIC by broth microdilution, M. xenopi; conditions: Mycobacterium xenopi, ATCC19250, 168 h, cation adjusted Mueller Hinton broth + ADC (5%), 37° C., 7 days (at least)
Description: (§1) MIC values were determined by broth microdilution method according to the CLSI guidelines with the following exceptions: MIC against A. baumannii was performed in RPMI medium supplemented with 10% FCS and MIC against M. abscessus was performed in Middlebrook 7H9 broth supplemented with Middlebrook ADC growth supplement (10%; see column “M. abscessus 7H9”). MIC forM abscessus was determined a second time in standard cation adjusted Mueller Hinton broth without growth supplement (see colum “M. abscessus MH”). All other MIC were performed in standard cation adjusted Mueller Hinton broth, supplemented with Middlebrook ADC growth supplement (5%) for the slow growing mycobacteria (M. xenopi, M. kansasii and M. avium).
(§2) The following procedure applies to all species tested, except forM xenopi. From a fresh culture plate (from overnight to several days depending on the bacteria), cells were resuspended in 0.9% (w/v) saline solution and bacterial inoculum was prepared in the respective testing medium with 5×10^5 CFU/mL. For M. xenopi, the inoculum was prepared from a fresh liquid culture (7H9+ADC). The appropriate volumes of a 10 mg/mL compound solution were directly dispensed in the 96-well assay plate using a digital dispenser to create two-fold dilution series from 32 to 0.002 μg/mL final concentration for A. baumannii and S. aureus; from 16 to 0.016 μg/mL for M. abscessus and M. avium; and from 1 to 6×10^−5 μg/mL for M. kansasii and M. xenopi. 100 μL of bacterial suspension was finally added to the compounds. Plates were covered and incubated without shaking at 35° C. for 20 hours for A. baumanii and S. aureus; at 30° C. for 4 days for M. abscessus; and at 37° C. for 7 days (at least) for M. kansasii (covered with aluminum foil to avoid light exposure), M. avium and M. xenopi. Every experiment contained an antibiotic as quality control. MIC was determined visually as the lowest concentration of a compound that prevents visible growth of the bacteria.
(§3) The in vitro activity of compounds described herein was determined against S. aureus (UAMS-1625 strain), A. baumannii (HUMC1 strain), M. abscessus (ATCC 19977), M. kansasii (ATCC 12478), M. avium (ATCC 25291), and M. xenopi (ATCC 19250).

M. avium (ATCC 25291) = test: MIC by broth microdilution, M. avium; conditions: Mycobacterium avium, ATCC25291, 168 h, cation adjusted Mueller Hinton broth + ADC (5%), 37° C., 7 days (at least)
Description: as §1, §2, §3

[1] = tested on: M. abscessus (ATCC 19977); test: MIC by broth microdilution, M. abscessus in Middlebrook 7H9 broth + ADC; conditions: Mycobacteroides abscessus, ATCC19977, 96 h; ATCC 19977; Middlebrook 7H9 broth + ADC growth supplement (10%); 30° C., 4 days; read-out: MIC M. abscessus 7H9
Description: as §1, §2, §3

[2] = tested on: S. aureus (UAMS-1625 strain); test: MIC by broth microdilution, S. aureus; conditions: Staphylococcus aureus, 20 h, read-out: MIC S. aureus
How it was run: (§4)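 CLSI broth microdilution in cation-adjusted Mueller Hinton broth, 5×10^5 CFU/mL inoculum; ADC (5%) added for M. avium and M. xenopi (M. xenopi inoculum from 7H9+ADC liquid culture). Two-fold series 16–0.016 μg/mL (M. abscessus, M. avium), 1–6×10^−5 μg/mL (M. xenopi); S. aureus 35° C 20 h, M. abscessus 30° C 4 days, others 37° C ≥7 days; MIC = lowest concentration without visible growth.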

[3] = tested on: A. baumannii (HUMC1 strain); test: MIC by broth microdilution, A. baumannii (RPMI + 10% FCS); conditions: Acinetobacter baumannii; HUMC1 strain; RPMI medium + 10% FCS; 35° C., 20 hours; read-out: MIC A. baumannii
M. kansasii (ATCC 12478) = test: MIC by broth microdilution, M. kansasii; conditions: Mycobacterium kansasii, ATCC12478, 168 h, cation adjusted Mueller Hinton broth + ADC (5%), 37° C., 7 days (at least)
Description: as §1, §2, §3

[4] = tested on: M. abscessus (ATCC 19977); test: MIC by broth microdilution, M. abscessus in cation adjusted Mueller Hinton broth; conditions: Mycobacteroides abscessus, ATCC19977, 96 h; ATCC 19977; cation adjusted Mueller Hinton broth without growth supplement; 30° C., 4 days; read-out: MIC M. abscessus MH
How it was run: as §4

Structure (SMILES) | MIC (M. xenopi (ATCC 19250)) | MIC (M. avium (ATCC 25291)) | MIC [1] | MIC [2] | MIC [3] | MIC (M. kansasii (ATCC 12478)) | MIC [4]
CO[C@H]1/C=C/O[C@@]2(C)Oc3c(C)c(O)c4c(c3C2=O)C2=NC3(CCN(CC(C)C)CC3)NC2=C(NC(=O)/C(C)=C\C=C\[C@H](C)[C@H](O)[C@@H](C)[C@@H](O)[C@@H](C)[C@H](OC(=O)N2CCN(CC3CCCCC3)CC2)[C@@H]1C)C4=O [Compound 9] | 0.016 µg/mL | 0.125 µg/mL | 0.06 µg/mL | 0.5 µg/mL (≈ 0.493 µM) | 0.5 µg/mL | 0.0002 µg/mL | 0.125 µg/mL (≈ 0.123 µM)
CO[C@H]1/C=C/O[C@@]2(C)Oc3c(C)c(O)c4c(c3C2=O)C2=NC3(CCN(CC(C)C)CC3)NC2=C(NC(=O)/C(C)=C\C=C\[C@H](C)[C@H](O)[C@@H](C)[C@@H](O)[C@@H](C)[C@H](OC(=O)N2CCC(c3ccncc3)CC2)[C@@H]1C)C4=O [Compound 2] | 0.002 µg/mL | 0.06 µg/mL | 0.125 µg/mL | 0.125 µg/mL (≈ 0.126 µM) | 0.016 µg/mL | 0.0005 µg/mL | 0.25 µg/mL (≈ 0.252 µM)
CO[C@H]1/C=C/O[C@@]2(C)Oc3c(C)c(O)c4c(c3C2=O)C2=NC3(CCN(CC(C)C)CC3)NC2=C(NC(=O)/C(C)=C\C=C\[C@H](C)[C@H](O)[C@@H](C)[C@@H](O)[C@@H](C)[C@H](OC(=O)N2CCC(c3ccccc3)CC2)[C@@H]1C)C4=O [Compound 1] | 0.03 µg/mL | 0.125 µg/mL | 0.125 µg/mL | 0.5 µg/mL (≈ 0.504 µM) | 0.25 µg/mL | 0.004 µg/mL | 0.5 µg/mL (≈ 0.504 µM)
CO[C@H]1/C=C/O[C@@]2(C)Oc3c(C)c(O)c4c(c3C2=O)C2=NC3(CCN(CC(C)C)CC3)NC2=C(NC(=O)/C(C)=C\C=C\[C@H](C)[C@H](O)[C@@H](C)[C@@H](O)[C@@H](C)[C@H](OC(=O)N2CCN(c3ccccc3)CC2)[C@@H]1C)C4=O [Compound 7] | 0.008 µg/mL | 0.25 µg/mL | 0.125 µg/mL | 0.5 µg/mL (≈ 0.503 µM) | 0.125 µg/mL | 0.001 µg/mL | 0.5 µg/mL (≈ 0.503 µM)
CO[C@H]1/C=C/O[C@@]2(C)Oc3c(C)c(O)c4c(c3C2=O)C2=NC3(CCN(CC(C)C)CC3)NC2=C(NC(=O)/C(C)=C\C=C\[C@H](C)[C@H](O)[C@@H](C)[C@@H](O)[C@@H](C)[C@H](OC(=O)N2CCC(N(C)c3ccccc3)CC2)[C@@H]1C)C4=O [Compound 4] | 0.016 µg/mL | 0.25 µg/mL | 0.25 µg/mL | 0.5 µg/mL (≈ 0.49 µM) | 0.125 µg/mL | 0.002 µg/mL | 1 µg/mL (≈ 0.979 µM)
CO[C@H]1/C=C/O[C@@]2(C)Oc3c(C)c(O)c4c(c3C2=O)C2=NC3(CCN(CC(C)C)CC3)NC2=C(NC(=O)/C(C)=C\C=C\[C@H](C)[C@H](O)[C@@H](C)[C@@H](O)[C@@H](C)[C@H](OC(=O)NC2CCN(Cc3ccccc3)CC2)[C@@H]1C)C4=O [Compound 14] | 0.008 µg/mL | 0.25 µg/mL | 0.25 µg/mL | 0.125 µg/mL (≈ 0.122 µM) | 0.004 µg/mL | 0.0005 µg/mL | 0.25 µg/mL (≈ 0.245 µM)
